According to US20070093539A1, “N-hydroxy-4-(3-pheyl-5-methyl-isoxazole-4-yl)-benzenesulfonate solvates” (priority 2003, published 2007):

Legend:
[1] = tested on: inflammatory mechanical allodynia induced by carrageenan; assay: Carrageenan-induced inflammatory mechanical allodynia (von Frey); type: in vivo, male Sprague-Dawley rats; details: 30 mg/kg p.o.
Method: The-threshold of pain of the animals was measured by von Frey apparatus (IITC, type: 1601 C). […] The values were registered in the times of the pick up or raises. During each measurment the threshold was determined at least thrice and the avarage was calculated from the peak values.
Male Sprague-Dawley rats (weighing 250-300 g) were used (n=5-6/group). 100 μl of saline solution of carrageenant (CA) was injected to the middle of the paw. The stimulus threshold was measured after it, and the treatment was completed with gastro-probe per os. The effects of the materials were measured in 30, 60, 90, 120 minutes after the treatments. The effects were compared for control group treatment with vehicle (solution of 2% Tween-80).
The effect was calculated as follows: [formula] where tx=30, 60, 90, 120 min
In the acute pain model the analgesic effects of the valdecoxib and compound of example 1 were considerable with dose of 30 mg/kg p.o. once.

[2] = tested on: isolated rabbit heart; assay: Cardiac effects on the isolated rabbit heart (Langendorff, coronary flow); set-up: species or system New Zealand white rabbits; details: 1, 3 and 10 μM, 4-4 hearts
Method: New Zealand white rabbits weighing 1.5-2 kg were used. The animals were exsanguinated and after thoracotomy the hearts were excised and mounted on a Langendorff-type perfusion apparatus. The hearts were perfused via the aorta with oxigenated, thermostated (37° C.) Krebs solution. A constant perfusion pressure of 80 cmH2O was applied. The test compounds were dissolved in the perfusion solution to obtain the requested concentrations.
The basic value of coronary flow was determined. Afterwards the small amount of compounds were added to perfusion liquid and the perfusion was measured for 30 minutes at every 10 minutes. Afterwards 30 minutes perfusion was performed without compound and the measure was repeated with the medium and high amount of compounds.
The effects of same concentration of valdecoxib and compound of example 1 were investigated in 4-4 hearts (1, 3 and 10 μM). Valdecoxib had no effect in either concentration. It can clearly be shown that the coronary flow was increased dose dependently. This effect is advantageous in practice of clinical therapy, because the painful arthritic and degenerative joint and bone deformations are emerged rather in old age, when diseases of the vascular system are also frequently encountered, which can conduce to disorder of vascular bed of the heart.

[3] = tested on: carrageenan induced inflammatory hyperalgesia; assay: Carrageenan induced inflammatory hyperalgesia (Randall-Selitto), acute model; type: in vivo, male SPRD rats; details: Acut model, 10 mg/kg p.o.
Method: (§1) Edema was induced by injection of Carrageenan (CA) into plantar surface of right hind paw. Male SPRD rats (weighing 140-190 g) were used n=6-8/group). Then the mechanical pain threshold of the inflamed hind paw was determined with an analgesimeter ((Ugo Basile, type: 37215).
(§2) This assay monitors the decrease of the pain threshold, and the time depending changing of the pain by mechanical pain stimulus. Analgesics can increase the pain threshold of the inflamed hinds and this effect is in terms of percentage of reversal.
(§3) Untreated right hind paw was compressed with a progressively increasing pressure. The pressure was recorded (in grams) when the animal first vocalized or made a vigorous attempt to remove the paw. It was determined to baseline threshold of the untreated paw. (average: 80-110 g). After it the animals were treated with carrageenan. After the treatment the edema and the threshold were checked in a given times. […] (Average of inflammation induced pain threshold was 20-25 g, this means 65-80% decrease related to the baseline.)
1 hour after the CA injection (100 μl of 2% solution) the animals were treated with test compounds and valdecoxib (10-10 mg/kg p.o.). […]
(§4) The chronic phase of the inflammantion and the decreasing of the threshold were induced by higher dose of CA. Inflammation induced threshold decreasing was measured 24 hours after the CA injection (150 μl of 2% solution). ) After it the animals were treated with test compounds and valdecoxib (30-30 mg/kg p.o.). Change in the threshold was checked at 1 h, 2 h, and 3 h following drug administration. In both model used control groups were treated orally only with solvents at the time of treatments. In both protocol the effects of the test compounds were calculated in percentage reversal of mechanical hiperalgesia: [formula] • T3h: In acute model, the threshold in the control group at 3 h after the CA injection (in gram) • T24h: In chronic model, the threshold in the control group at 24 h after the CA injection (in gram) • T0h: The threshold before the CA injection (in gram) • TXh In acute model, at 3h after the CA injection • TXh=In chronic model, at 25 h, 26 h, 27 h after the CA injection

[4] = tested on: carrageenan induced inflammatory hyperalgesia; assay: Carrageenan induced inflammatory hyperalgesia (Randall-Selitto), chronic model; type: in vivo, male SPRD rats; details: 30 mg/kg p.o.
Method: as §1, §2, §3, §4

[5] = tested on: carrageenan-induced foot paw edema; assay: Carrageenan-induced rat foot paw edema assay; type: in vivo, male Wistar rats; details: for ED30 of edema inhibition: p.o.
Method: The edema was induced in male Wistar rats (140-150 g) by subcutaneous injection of carrageenan (50 μl of 1% suspension) into the right hind paw. The formed inflammation was measured with plethysmometer (Ugo Basile, type: 7150). The treated paw was placed into the plethysmometer (filled with 0.3% additives in 0.5% saline), the level of the inflammation was detected by the volume of the displaced solution. This volume was compared with the initial preinjection paw volume. Level of the inflammation (ml)=volume after CA treatment (ml)−volume before CA treatment (ml) The inflammation induced in treated group was compared to control group (which was given only vehicle). The sample materials and the solvent were dosed per os via gastro-sonde 1 hour before the CA treatment. The volume of the treated limb was measured at 3h and 5h after CA treatments. The change of the inflammation level was calculated as follows: [formula]

[6] = tested on: carrageenan and kaolin induced monoarthritis; assay: Carrageenan and kaolin induced monoarthritis model (incapacitance test); type: in vivo, rats; details: 10 mg/kg p.o.
Method: The Incapacitance tester is an apparatus for measure the changes of the functional parameters induced of the pain, which can register the bearing on the hind limb, the amount of the moving and the changing of the centre of gravity. Knee-joint of the right-back limb was treated with solution of 100 μl 2% carrageenan and kaolin. During 3-4 hours after the treatment arthritis was emerged in the capsular ligament of the treated limb. This inflammation still exists at 24 hours after the treatment. Because of the pain the animals coddles the treated limbs, thy weign on it less. Change of weight load is measurable with Incapacitance tester device in grams. The incapacitance was calculated as follows: [formula] Analgesic-antiinflammantory compounds could increase the stimulus threshold of the knee-joint, and consequently to improve the functional parameters of the limb. Measure of this can be counted by the decrease of the loading of left leg i.e. in terms of percentage of reversal. [formula] The Incapacitance induced by administration of irritants in left paw was measured at 4 hour after the injection. Afterwards the animals (n=24-32/group) were. orally treated with dose of 10 mg/kg valdecoxib and test compounds. Measurements were done at 1 and 2 hours after the treatments.

Cc1onc(-c2ccccc2)c1-c1ccc(S(N)(=O)=O)cc1 [valdecoxib, reference compound]
Analgesic effect in % after p.o. treatment ([1]; 30 min.): 69.2%
Analgesic effect in % after p.o. treatment ([1]; 1 hour): 60.0%
Analgesic effect in % after p.o. treatment ([1]; 1.5 hour): 57.7%
Analgesic effect in % after p.o. treatment ([1]; 2 hours): 47.8%
effect on coronary flow (in words) [2]: no effect
Analgesic effect in % after p.o. treatment ([3]; 2 hours): 50.5%
Analgesic effect in % after p.o. treatment ([3]; 3 hours): 59.9%
Analgesic effect in % after p.o. treatment ([3]; 4 hours): 33.2%
Analgesic effect in % after p.o. treatment ([4]; 1 hour): 24.2%
Analgesic effect in % after p.o. treatment ([4]; 2 hours): 36.9%
Analgesic effect in % after p.o. treatment ([4]; 3 hours): 19.9%
edema inhibition effect % ([5]; 0.1 mg/kg p.o., 4 hours after treatment): 29.4%
edema inhibition effect % ([5]; 0.1 mg/kg p.o., 6 hours after treatment): 25.8%
edema inhibition effect % ([5]; 0.3 mg/kg p.o., 4 hours after treatment): 34.1%
edema inhibition effect % ([5]; 0.3 mg/kg p.o., 6 hours after treatment): 27.3%
edema inhibition effect % ([5]; 1.0 mg/kg p.o., 4 hours after treatment): 40.1%
edema inhibition effect % ([5]; 1.0 mg/kg p.o., 6 hours after treatment): 37.8%
edema inhibition effect % ([5]; 3.0 mg/kg p.o., 4 hours after treatment): 47.7%
edema inhibition effect % ([5]; 3.0 mg/kg p.o., 6 hours after treatment): 45.8%
ED30 of edema inhibition ([5]; 4 hours after treatment): 0.2 mg/kg
ED30 of edema inhibition ([5]; 6 hours after treatment): 0.3 mg/kg
Analgesic effect (% reversal) after p.o. treatment ([6]; 1 hour): 52.1 % reversal
Analgesic effect (% reversal) after p.o. treatment ([6]; 2 hours): 62.4 % reversal
